Where two headings read alike, the source gives them in different places.
Experiments:
[1] = target: FLNA pentapeptide of SEQ ID NO: 1 (Bn-VAKGL) (Homo sapiens, UniProt P21333); assay: FITC-NLX-based FLNA screening assay (inhibition of FITC-naloxone binding to Bn-VAKGL on streptavidin plates); conditions: 10 nM FITC-NLX
[2] = system: glioblastoma cells (U-87 MG); assay: [3H]glucose uptake; assay type: cell-based, human; conditions: C0105 0.1-5 nM, other compounds 1 and 5 nM, twice daily for 4 days
Description: (§1) FIG. 1A through FIG. 1M illustrate the effects of various FLNA-binding compounds on glucose uptake in glioblastoma, melanoma, breast and pancreatic cancer cell lines, along with appropriate non-cancerous primary cell controls. Cells were grown in the absence or presence of 0.1-5 nM indicated compounds for 4 days. Following brief washes with PBS, cells were serum-deprived for 4 hours and then incubated in oxygenated Kreb's Ringer containing 0.1 μCi [^3H]glucose for 2 hours under constant oxygenation. The reaction was terminated by removal of the incubation medium, and cells were washed and scraped off to determine the amounts of [^3H]glucose in cells by scintillation spectrometry. […] N=5-6. […] . […] . To determine the effect of Compound C0105 on glucose utilization, the cancer and primary normal cells were plated extremely thinly (10%). Once cells attached, Compound C0105 was added at 0.1, 0.5, 1 or 5 nM in the medium twice daily (6 hours apart) for 4 days. The cells were serum-deprived (glucose deprived) for 2 hours. Cells were then rinsed with 1 ml PBS and glucose uptake was assessed by contacting the cells with [^3H]glucose (0.01 uCi/l ml) in Kreb's Ringer for 2 hours. Cells were then rinsed with 1 ml PBS 3 times, scraped off and their glucose content counted by liquid scintillation spectrophotometry.
(§2) Both glioblastoma and melanoma cells were plated extremely thinly. Once cells attached, Compound C0105 was added at 0.1, 0.5, 1 and 5 nM, whereas the other compounds were present at 1 and 5 nM in the medium twice daily (6 hours apart) for 4 days. The cells were serum-deprived (glucose deprived) for 2 hours. Cells were then rinsed with 1 ml PBS and glucose uptake was assessed by contacting the cells with [3H]glucose (0.01 uCi/l ml) of Kreb's Ringer for 2 hours. Cells were then rinsed with 1 ml PBS 3 times, scraped off and their glucose contents counted by liquid scintillation spectrophotometry.

melanoma cells (A2058) = assay: [3H]glucose uptake; assay type: cell-based, human; conditions: C0105 0.1-5 nM, other compounds 1 and 5 nM, twice daily for 4 days
Description: as §1, §2

primary lung fibroblasts = assay: [3H]glucose uptake; assay type: cell-based, human; conditions: C0105 0.1-5 nM, other compounds 1 or 5 nM; 4 days
Description: as §1, §2

[3] = system: non-small cell lung cancer cell lines; assay: Glucose utilization; assay type: cell-based, human; conditions: data not shown
Description: To determine the effect of Compound C0105 on glucose utilization, the cancer and primary normal cells were plated extremely thinly (10%). Once cells attached, Compound C0105 was added at 0.1, 0.5, 1 or 5 nM in the medium twice daily (6 hours apart) for 4 days. The cells were serum-deprived (glucose deprived) for 2 hours. Cells were then rinsed with 1 ml PBS and glucose uptake was assessed by contacting the cells with [^3H]glucose (0.01 uCi/l ml) in Kreb's Ringer for 2 hours. Cells were then rinsed with 1 ml PBS 3 times, scraped off and their glucose content counted by liquid scintillation spectrophotometry.
. Primary lung fibroblast cells were used as control, non-cancerous cells to illustrate the difference in effects observed (FIG. 1C, FIGS. 1H-1I).

mu opiate receptor (MOR) = assay: MOR agonist activity using [35S]GTPγS binding assay in striatal membranes; assay type: biochemical
Procedure, shortened: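 Striatal membranes (200 μg) were preincubated 5 min at 30 °C in HEPES pH 7.5 with 100 mM NaCl, 1 mM MgCl2 and 0.5 nM [35S]GTPγS, then 5 min more with 0.1–10 μM compound. Gαo was immunoprecipitated and bound radioactivity counted by scintillation.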

[4] = FLNA-binding compound 0.01 μM, read-out: Percent Binding Inhibition
[5] = FLNA-binding compound 0.1 μM, read-out: Percent Binding Inhibition
[6] = FLNA-binding compound 1 μM, read-out: Percent Binding Inhibition
[7] = Series B, 0.1 μM compound, relative to DAMGO
[8] = Series B, 0.1 μM compound, [35S]GTPγS binding to Gαo, striatal membranes
[9] = Series B, 1 μM compound + 1 μM β-FNA
[10] = Series B, 1 μM compound + β-FNA, relative to DAMGO + BFNA
[11] = Series B, 1 μM compound, relative to DAMGO
[12] = Series B, 1 μM compound, [35S]GTPγS binding to Gαo, striatal membranes
[13] = read-out: Percent Binding Inhibition, FLNA-binding compound 0.01 μM
[14] = read-out: Percent Binding Inhibition, FLNA-binding compound 0.1 μM
[15] = read-out: Percent Binding Inhibition, FLNA-binding compound 1 μM

SMILES: O=C1CNC2(CCN(CC3CC3)CC2)N1Cc1ccccc1 [Compound C0124M]
- inhibition at 0.01 µM [1, 4]: 47.7%
- inhibition at 0.1 µM [1, 5]: 52.2%
- inhibition at 1 µM [1, 6]: 58.7%
- Glucose utilization [2]: decreased the elevated glucose utilization
- Glucose utilization (melanoma cells (A2058)): decreased the elevated glucose utilization
- Glucose uptake / glucose content (primary lung fibroblasts): no significant inhibition in glucose content
- Glucose utilization [3]: decreased the elevated glucose utilization

SMILES: COc1c2c(cc3c1C(CC(=O)Cc1ccccc1F)[N+](C)(C)CC3)OCO2 (centres unmarked) [Compound B0055]
- % DAMGO (0.1 μM) (mu opiate receptor (MOR); [7]): 91.8%
- MOR agonist activity, percent [35S]GTPγS binding at the stated compound concentration (mu opiate receptor (MOR); [8]): 162.1%
- MOR agonist activity, percent [35S]GTPγS binding at the stated compound concentration (mu opiate receptor (MOR); [9]): 117.5%
- % DAMGO + BFNA (mu opiate receptor (MOR); [10]): 446.8%
- % DAMGO (1 μM) (mu opiate receptor (MOR); [11]): 133.1%
- MOR agonist activity, percent [35S]GTPγS binding at the stated compound concentration (mu opiate receptor (MOR); [12]): 338.5%
- Glucose utilization [2]: decreased the elevated glucose utilization
- Glucose utilization (melanoma cells (A2058)): decreased the elevated glucose utilization
- Glucose uptake / glucose content (primary lung fibroblasts): no significant inhibition in glucose content
- Glucose utilization [3]: decreased the elevated glucose utilization

SMILES: NS(=O)(=O)c1ccc(S(=O)(=O)N2CCC3(CC2)OCCN3S(=O)(=O)c2ccc(S(N)(=O)=O)cc2)cc1 [Compound C0034]
- inhibition at 0.01 µM [1, 13]: 29.6%
- inhibition at 0.1 µM [1, 14]: 38.3%
- inhibition at 1 µM [1, 15]: 44.8%
- % DAMGO (0.1 μM) (mu opiate receptor (MOR); Series C-1, 0.1 μM compound, relative to DAMGO): 61.3%
- Concentration of FLNA-Binding Compound as Agonist 0.1 μM (mu opiate receptor (MOR); Series C-1, 0.1 μM compound, [35S]GTPγS binding to Gαo, striatal membranes): 103.6%
- Concentration of FLNA-Binding Compound as Agonist 1 μM + BFNA (mu opiate receptor (MOR); Series C-1, 1 μM compound + 1 μM β-FNA): 80.1%
- % DAMGO + BFNA (mu opiate receptor (MOR); Series C-1, 1 μM compound + β-FNA, relative to DAMGO + BFNA): 482.5%
- % DAMGO (1 μM) (mu opiate receptor (MOR); Series C-1, 1 μM compound, relative to DAMGO): 76.7%
- Concentration of FLNA-Binding Compound as Agonist 1 μM (mu opiate receptor (MOR); Series C-1, 1 μM compound, [35S]GTPγS binding to Gαo, striatal membranes): 167.9%

SMILES: COc1c2c(cc3c1OCO3)CCN(CC(O)COC1CC(C)CCC1C(C)C)C2 (centres unmarked) [Compound A0061]
- inhibition at 0.01 µM [1, 4]: 27.5%
- inhibition at 0.1 µM [1, 5]: 38.9%
- inhibition at 1 µM [1, 6]: 42.8%
- MOR agonist activity ([35S]GTPγS binding), FLNA-Binding Compound as Agonist 0.1 μM (mu opiate receptor (MOR); 0.1 μM compound): 110.3%
- % DAMGO (0.1 μM) (mu opiate receptor (MOR); 0.1 μM compound relative to DAMGO): 70.7%
- MOR agonist activity ([35S]GTPγS binding), FLNA-Binding Compound as Agonist 1 μM (mu opiate receptor (MOR); 1 μM compound): 197.1%
- MOR agonist activity ([35S]GTPγS binding), FLNA-Binding Compound as Agonist 1 μM + BFNA (mu opiate receptor (MOR); 1 μM compound + 1 μM β-funaltrexamine): 10.7%
- % DAMGO + BFNA (mu opiate receptor (MOR); 1 μM compound + BFNA relative to DAMGO + BFNA): 26.8%
- % DAMGO (1 μM) (mu opiate receptor (MOR); 1 μM compound relative to DAMGO): 85.5%

SMILES: CC(=O)c1ccc(S(=O)(=O)N2C(Cc3c[nH]cn3)C(=O)NC23CCNCC3)cc1 (centres unmarked) [Compound C0119M]
- inhibition at 0.01 µM [1, 13]: 41.6%
- inhibition at 0.1 µM [1, 14]: 55.5%
- inhibition at 1 µM [1, 15]: 60%
- % DAMGO (0.1 μM) (mu opiate receptor (MOR); Series C-2, 0.1 μM compound, relative to DAMGO): 71.9%
- MOR agonist activity, percent [35S]GTPγS binding at the stated compound concentration (mu opiate receptor (MOR); Series C-2, 0.1 μM compound, [35S]GTPγS binding to Gαo, striatal membranes): 105.7%
- MOR agonist activity, percent [35S]GTPγS binding at the stated compound concentration (mu opiate receptor (MOR); Series C-2, 1 μM compound + 1 μM β-FNA): 35.1%
- % DAMGO + BFNA (mu opiate receptor (MOR); Series C-2, 1 μM compound + β-FNA, relative to DAMGO + BFNA): 89.3%
- % DAMGO (1 μM) (mu opiate receptor (MOR); Series C-2, 1 μM compound, relative to DAMGO): 83.0%
- MOR agonist activity, percent [35S]GTPγS binding at the stated compound concentration (mu opiate receptor (MOR); Series C-2, 1 μM compound, [35S]GTPγS binding to Gαo, striatal membranes): 167.8%

SMILES: COc1ccc(OC)c(CCC(=O)CC2c3c(cc4c(c3OC)OCO4)CC[N+]2(C)C)c1 (centres unmarked) [Compound B0044]
- inhibition at 0.01 µM [1, 13]: 35.2%
- inhibition at 0.1 µM [1, 14]: 39.5%
- inhibition at 1 µM [1, 15]: 44.4%
- % DAMGO (0.1 μM) (mu opiate receptor (MOR); [7]): 49.4%
- MOR agonist activity, percent [35S]GTPγS binding at the stated compound concentration (mu opiate receptor (MOR); [8]): 87.3%
- MOR agonist activity, percent [35S]GTPγS binding at the stated compound concentration (mu opiate receptor (MOR); [9]): 134.6%
- % DAMGO + BFNA (mu opiate receptor (MOR); [10]): 511.8%
- % DAMGO (1 μM) (mu opiate receptor (MOR); [11]): 66.9%
- MOR agonist activity, percent [35S]GTPγS binding at the stated compound concentration (mu opiate receptor (MOR); [12]): 170.0%

Reference: patent publication US10363239B2, “Method for inhibiting growth of cancer cells” (Pain Therapeutics, Inc., priority 2013, dated 2019)
